Measurements published in ChEMBL document CHEMBL1144417, “Conformation mining: an algorithm for finding biologically relevant conformations” (J Med Chem, 2005).
pIC50, pKi: −log10 of the molar value.

Key:
[1] = Inhibitory activity against thrombin
[2] = target: Cyclin-dependent kinase 2 (Homo sapiens, UniProt P24941); assay: Inhibition of Cyclin-dependent kinase 2

| pKi [1] | pIC50 [2] | Structure (SMILES) |
| --- | --- | --- |
| 9.00 |  | C[C@@H]1CCN(C(=O)[C@H](CCCNC(=N)N)NS(=O)(=O)c2cccc3c2NC[C@H](C)C3)[C@@H](C(=O)O)C1 [ARGATROBAN] |
|  | 6.00 | O=C1NC2C=CC=CC2/C1=C/Nc1ccc(S(=O)(=O)Nc2nccs2)cc1 (stereo not given) |
| 8.70 |  | N=C(N)NCCC[C@H](NC(=O)[C@@H]1CCN2CC[C@@](N)(Cc3ccccc3)C(=O)N12)C(=O)c1nccs1 |
| 8.15 |  | N=C(N)c1ccc(C[C@@H](NC(=O)CNS(=O)(=O)c2ccc3ccccc3c2)C(=O)N2CCCCC2)cc1 |
| 7.64 |  | Cc1cc(NS(=O)(=O)c2ccccc2)cc(OCCNc2ccncc2)c1 |
